Patent publication US20120270819A1, “USE OF COMPOUNDS WITH SGLT-1/SGLT-2 INHIBITOR ACTIVITY FOR PRODUCING MEDICAMENTS FOR TREATMENT OF BONE DISEASE” (SANOFI, priority 2009, published 2012)

Tested on: female Sprague-Dawley mature and young adult rats
Assay: Ex vivo peripheral quantitative computed tomography (pQCT) of right femur (metaphysis, diaphysis, length)
Type: in vivo, rat
Conditions: Young Adults; for pQCT femur (diaphysis) CSMI / pQCT femur (diaphysis) Cortical Area / pQCT femur (diaphysis) Cortical BMC / pQCT femur (diaphysis) Cortical BMD / pQCT femur (diaphysis) Cortical Thickness / pQCT femur (diaphysis) Endosteal Circumference / pQCT femur (diaphysis) Periosteal Circumference / pQCT femur (diaphysis) Total Area / pQCT femur (diaphysis) Total BMC / pQCT femur (diaphysis) Total BMD / pQCT femur Length / pQCT femur metaphysis C/SC (Cortical/Subcortical) BMC / pQCT femur metaphysis C/SC (Cortical/Subcortical) BMD / pQCT femur metaphysis Total Area / pQCT femur metaphysis Total BMC / pQCT femur metaphysis Total BMD / pQCT femur metaphysis Trabecular BMC / pQCT femur metaphysis Trabecular BMD: mean
Method: The following were evaluated: clinical signs (at least weekly), body weight (weekly), food consumption (weekly), hormones (Days 13 and 27), serum and urinary biochemical markers of bone turnover (Days 13 and 27), serum chemistry (at necropsy), bone densitometry by dual energy X-ray absorptiometry (DXA) and peripheral quantitative computed tomography (pQCT) (Week 2 and 4, as well as ex vivo), macroscopic observations at necropsy, organ weights, histopathology, biomechanical strength testing and femoral length measurements.
3.2 Ex Vivo Peripheral Quantitative Computed Tomography (pQCT)
Peripheral QCT scans were performed ex vivo using an XCT Research SA or SA+ bone scanner with software version 5.50D. Scans were obtained for the right femur, L3 and L4 lumbar vertebra for all animals euthanized at the end of the treatment period as well as two found dead animals. These two animals were scanned twice due to technical oversight, however only the first scans obtained were reported and the second scans were kept with the study file, this had no impact on the study as both scans were considered equivalent.
For the femurs, the scanned site was at the expected 3-point bending fracture site (diaphysis). This site was analyzed using Cortmode 2 for cortical bone measurements only (Table 5). An additional slice was obtained in the metaphysis. The metaphysis scan was not performed for the femur of three animals due to condyles detachment from the femur during trimming.
The femoral length was measured as part of the ex vivo pQCT scanning procedures and was reported for the right femur of all animals with the exception of 3 animas due to damaged femoral condyles.
All analyses were performed using the LOOP option of the analysis software. All other data generated as a result of the LOOP option were retained with the raw data but not reported. The most appropriate analysis mode for the femur and the lumbar vertebrae was used and documented in the raw data and the analysis details are presented in Table 6. All scan analysis data was retained and re-analyses documented.

COc1ccc(Cc2c(OC3OC(CO)C(F)C(O)C3O)n[nH]c2C(F)(F)F)cc1 (stereo not drawn) [Example 5 of formula II]
pQCT femur (diaphysis) CSMI, percent difference from Vehicle Control (10 mg/kg/day): −1.3%
pQCT femur (diaphysis) Cortical Area, percent difference from Vehicle Control (10 mg/kg/day): −0.4%
pQCT femur (diaphysis) Cortical BMC, percent difference from Vehicle Control (10 mg/kg/day): −0.8%
pQCT femur (diaphysis) Cortical BMD, percent difference from Vehicle Control (10 mg/kg/day): −0.4%
pQCT femur (diaphysis) Cortical Thickness, percent difference from Vehicle Control (10 mg/kg/day): 0.15%
pQCT femur (diaphysis) Endosteal Circumference, percent difference from Vehicle Control (10 mg/kg/day): −0.7%
pQCT femur (diaphysis) Periosteal Circumference, percent difference from Vehicle Control (10 mg/kg/day): −1.2%
pQCT femur (diaphysis) Total Area, percent difference from Vehicle Control (10 mg/kg/day): −0.9%
pQCT femur (diaphysis) Total BMC, percent difference from Vehicle Control (10 mg/kg/day): 0.2%
pQCT femur (diaphysis) Total BMD, percent difference from Vehicle Control (10 mg/kg/day): 1.1%
pQCT femur Length, percent difference from Vehicle Control (10 mg/kg/day): −3.8%
pQCT femur metaphysis C/SC BMC, percent difference from Vehicle Control (10 mg/kg/day): 10.7%
pQCT femur metaphysis C/SC BMD, percent difference from Vehicle Control (10 mg/kg/day): 6.8%
pQCT femur metaphysis Total Area, percent difference from Vehicle Control (10 mg/kg/day): 3.7%
pQCT femur metaphysis Total BMC, percent difference from Vehicle Control (10 mg/kg/day): 16.7%
pQCT femur metaphysis Total BMD, percent difference from Vehicle Control (10 mg/kg/day): 12.6%
pQCT femur metaphysis Trabecular BMC, percent difference from Vehicle Control (10 mg/kg/day): 41.4%
pQCT femur metaphysis Trabecular BMD, percent difference from Vehicle Control (10 mg/kg/day): 36.4%
pQCT femur (diaphysis) CSMI (10 mg/kg/day): 3.8 mm^4
pQCT femur (diaphysis) Cortical Area (10 mg/kg/day): 4.7 mm^2
pQCT femur (diaphysis) Cortical BMC (10 mg/kg/day): 5.6 mg/mm
pQCT femur (diaphysis) Cortical BMD (10 mg/kg/day): 1182.8 mg/cm^3
pQCT femur (diaphysis) Cortical Thickness (10 mg/kg/day): 0.54 mm
pQCT femur (diaphysis) Endosteal Circumference (10 mg/kg/day): 6.9 mm
pQCT femur (diaphysis) Periosteal Circumference (10 mg/kg/day): 10.2 mm
pQCT femur (diaphysis) Total Area (10 mg/kg/day): 8.6 mm^2
pQCT femur (diaphysis) Total BMC (10 mg/kg/day): 6.2 mg/mm
pQCT femur (diaphysis) Total BMD (10 mg/kg/day): 721.8 mg/cm^3
pQCT femur Length (10 mg/kg/day): 31.9 mm
pQCT femur metaphysis C/SC (Cortical/Subcortical) BMC (10 mg/kg/day): 7.9 mg/mm
pQCT femur metaphysis C/SC (Cortical/Subcortical) BMD (10 mg/kg/day): 877.1 mg/cm^3
pQCT femur metaphysis Total Area (10 mg/kg/day): 15.0 mm^2
pQCT femur metaphysis Total BMC (10 mg/kg/day): 10.3 mg/mm
pQCT femur metaphysis Total BMD (10 mg/kg/day): 690.2 mg/cm^3
pQCT femur metaphysis Trabecular BMC (10 mg/kg/day): 2.5 mg/mm
pQCT femur metaphysis Trabecular BMD (10 mg/kg/day): 410.7 mg/cm^3
pQCT femur (diaphysis) CSMI, percent difference from Vehicle Control (50 mg/kg/day): 0.6%
pQCT femur (diaphysis) Cortical Area, percent difference from Vehicle Control (50 mg/kg/day): −0.6%
pQCT femur (diaphysis) Cortical BMC, percent difference from Vehicle Control (50 mg/kg/day): −0.7%
pQCT femur (diaphysis) Cortical BMD, percent difference from Vehicle Control (50 mg/kg/day): −0.1%
pQCT femur (diaphysis) Cortical Thickness, percent difference from Vehicle Control (50 mg/kg/day): −0.01%
pQCT femur (diaphysis) Endosteal Circumference, percent difference from Vehicle Control (50 mg/kg/day): −0.7%
pQCT femur (diaphysis) Periosteal Circumference, percent difference from Vehicle Control (50 mg/kg/day): −0.3%
pQCT femur (diaphysis) Total Area, percent difference from Vehicle Control (50 mg/kg/day): −0.7%
pQCT femur (diaphysis) Total BMC, percent difference from Vehicle Control (50 mg/kg/day): 0.0%
pQCT femur (diaphysis) Total BMD, percent difference from Vehicle Control (50 mg/kg/day): 0.9%
pQCT femur Length, percent difference from Vehicle Control (50 mg/kg/day): −4.9%
pQCT femur metaphysis C/SC BMC, percent difference from Vehicle Control (50 mg/kg/day): 18.4%
pQCT femur metaphysis C/SC BMD, percent difference from Vehicle Control (50 mg/kg/day): 13.6%
pQCT femur metaphysis Total Area, percent difference from Vehicle Control (50 mg/kg/day): 4.3%
pQCT femur metaphysis Total BMC, percent difference from Vehicle Control (50 mg/kg/day): 33.0%
pQCT femur metaphysis Total BMD, percent difference from Vehicle Control (50 mg/kg/day): 27.6%
pQCT femur metaphysis Trabecular BMC, percent difference from Vehicle Control (50 mg/kg/day): 92.0%
pQCT femur metaphysis Trabecular BMD, percent difference from Vehicle Control (50 mg/kg/day): 84.7%
pQCT femur (diaphysis) CSMI (50 mg/kg/day): 3.9 mm^4
pQCT femur (diaphysis) Cortical Area (50 mg/kg/day): 4.7 mm^2
pQCT femur (diaphysis) Cortical BMC (50 mg/kg/day): 5.6 mg/mm
pQCT femur (diaphysis) Cortical BMD (50 mg/kg/day): 1186.1 mg/cm^3
pQCT femur (diaphysis) Cortical Thickness (50 mg/kg/day): 0.54 mm
pQCT femur (diaphysis) Endosteal Circumference (50 mg/kg/day): 7.0 mm
pQCT femur (diaphysis) Periosteal Circumference (50 mg/kg/day): 10.2 mm
pQCT femur (diaphysis) Total Area (50 mg/kg/day): 8.6 mm^2
pQCT femur (diaphysis) Total BMC (50 mg/kg/day): 6.2 mg/mm
pQCT femur (diaphysis) Total BMD (50 mg/kg/day): 720.6 mg/cm^3
pQCT femur Length (50 mg/kg/day): 31.6 mm
pQCT femur metaphysis C/SC (Cortical/Subcortical) BMC (50 mg/kg/day): 8.4 mg/mm
pQCT femur metaphysis C/SC (Cortical/Subcortical) BMD (50 mg/kg/day): 932.6 mg/cm^3
pQCT femur metaphysis Total Area (50 mg/kg/day): 15.1 mm^2
pQCT femur metaphysis Total BMC (50 mg/kg/day): 11.8 mg/mm
pQCT femur metaphysis Total BMD (50 mg/kg/day): 782.0 mg/cm^3
pQCT femur metaphysis Trabecular BMC (50 mg/kg/day): 3.4 mg/mm
pQCT femur metaphysis Trabecular BMD (50 mg/kg/day): 556.0 mg/cm^3
